Test results as given in patent US20090004185A1, “AMINO-SUBSTITUTED QUINAZOLINE DERIVATIVES AS INHIBITORS OF BETA-CATENIN/TCF-4 PATHWAY AND CANCER TREATMENT AGENTS” (WYETH, priority 2007, published 2009).
Counter-ions that a name gives are not always drawn.

What was measured:
[1] = system: SV40-Luc; assay: SV40-Luc control luciferase reporter assay, SV 5A8 cell line (SV40-Luc and SV40-R-Luc), control for non-specific inhibitors; assay type: cell-based, human; details: SV 5A8 cells derived from SW480, 24 hours of incubation with compound, ratio Firefly/Renilla luciferase
Method in brief: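 Dual-luciferase readout in SW480 lines with chromosomally integrated reporters, namely Tcf-4-driven firefly in Tcf 33.13 and Tcf 22C11, and SV40-driven firefly in SV 5A8, all with SV40-Renilla. Compound incubation is 24 h; IC50 comes from the normalised F/R ratio.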

[2] = system: β-catenin/Tcf-4; assay: cells; assay type: cell-based; details: 24 hours of incubation with compound, ratio Firefly/Renilla luciferase
Method in brief: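 SW480-derived lines with integrated reporters (Tcf-4-driven firefly luciferase; SV40 firefly as specificity control; SV40 Renilla for cell number/toxicity), treated 24 hours with titrated compounds, final 0.316% DMSO. Dual-luciferase read-out; firefly/Renilla ratio as % of control, duplicate plates, IC50 (nM) from curve fit.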

[3] = Homo sapiens, SW480, 24 h, Tcf 33.13 cells derived from SW480
[4] = Homo sapiens, Tcf22C11, 24 h, Tcf 22C11 cells derived from SW480

| Compound | melting point [°C] | IC50 ([1]; Homo sapiens, SV5A8, 24 h) [nM] | IC50 [2, 3] [nM] | IC50 [2, 4] [nM] | further results |
| --- | --- | --- | --- | --- | --- |
| C/C=C\c1ccc2c(NCc3ccc(NC(=O)c4ccc(F)cc4)cc3)nc(N(C)C)nc2c1 (as salt: HCl) [Example 97, N-{4-[({2-(dimethylamino)-7-[(1Z)-prop-1-en-1-yl]quinazolin-4-yl}amino)methyl]phenyl}-4-fluorobenzamide] | 246 |  |  |  |  |
| C/C=C/c1ccc2c(NCc3ccc(NC(=O)c4ccc(F)cc4)cc3)nc(N(C)C)nc2c1 (as salt: HCl) [Example 96, N-{4-[({2-(dimethylamino)-7-[(1E)-prop-1-en-1-yl]quinazolin-4-yl}amino)methyl]phenyl}-4-fluorobenzamide] | 268 |  |  |  |  |
| CCc1ccc2c(NCc3ccc(NC(=O)c4ccc(F)cc4)cc3)nc(N(C)C)nc2c1 (as salt: HCl) [Example 88, N-[4-({[2-(dimethylamino)-7-ethylquinazolin-4-yl]amino}methyl)phenyl]-4-fluorobenzamide] | 270 |  |  |  |  |
| CC(O)c1ccc2c(NCc3ccc(NC(=O)c4ccc(F)cc4)cc3)nc(N(C)C)nc2c1 (centres unmarked) (as salt: HCl) [Example 95, N-[4-({[2-(dimethylamino)-7-(1-hydroxyethyl)quinazolin-4-yl]amino}methyl)phenyl]-4-fluorobenzamide] | 232 |  |  |  |  |
| CN(C)Cc1ccc2c(NCc3ccc(NC(=O)c4ccc(F)cc4)cc3)nc(N(C)C)nc2c1 (as salt: HCl) [Example 91, N-{4-[({2-(dimethylamino)-7-[(dimethylamino)methyl]quinazolin-4-yl}amino)methyl]phenyl}-4-fluorobenzamide] | 94 |  |  |  |  |
| CN(C)c1nc(NCc2ccc(NC(=O)c3ccc(F)cc3)cc2)c2ccc(CO)cc2n1 (as salt: HCl) [Example 93, N-[4-({[2-(dimethylamino)-7-(hydroxymethyl)quinazolin-4-yl]amino}methyl)phenyl]-4-fluorobenzamide] | 158 |  |  |  |  |
| C#Cc1ccc2c(NCc3ccc(NC(=O)c4ccc(F)cc4)cc3)nc(N(C)C)nc2c1 (as salt: HCl) [Example 108, N-[4-({[2-(dimethylamino)-7-ethynylquinazolin-4-yl]amino}methyl)phenyl]-4-fluorobenzamide] | 250 |  |  |  |  |
| C=Cc1ccc2c(NCc3ccc(NC(=O)c4ccc(F)cc4)cc3)nc(N(C)C)nc2c1 (as salt: HCl) [Example 87, N-[4-({[2-(dimethylamino)-7-vinylquinazolin-4-yl]amino}methyl)phenyl]-4-fluorobenzamide] | 145 |  |  |  |  |
| O=C(Nc1ccc(CNc2nc(Cl)nc3cc(I)ccc23)cc1)c1ccc(Cl)nc1 [Example 109, 6-chloro-N-(4-{[(2-chloro-7-iodoquinazolin-4-yl)amino]methyl}phenyl)nicotinamide] | 315 |  |  |  |  |
| CN(C)c1nc(NCc2ccc(NC(=O)c3ccc(F)cc3)cc2)c2ccc(C#N)cc2n1 (as salt: HCl) [Example 89, N-[4-({[7-cyano-2-(dimethylamino)quinazolin-4-yl]amino}methyl)phenyl]-4-fluorobenzamide] | 150 |  |  |  |  |
| CN(C)c1nc(NCc2ccc(NC(=O)c3ccc(F)cc3)cc2)c2ccc(-c3ccccc3C=O)cc2n1 (as salt: HCl) [Example 98, N-[4-({[2-(dimethylamino)-7-(2-formylphenyl)quinazolin-4-yl]amino}methyl)phenyl]-4-fluorobenzamide] | 128 |  |  |  |  |
| CN(C)c1nc(NCc2ccc(NC(=O)c3ccc(F)cc3)cc2)c2ccc(CN)cc2n1 (as salt: HCl) [Example 90, N-[4-({[7-(aminomethyl)-2-(dimethylamino)quinazolin-4-yl]amino}methyl)phenyl]-4-fluorobenzamide] | 245 |  |  |  |  |
| CN(C)c1nc(NCc2ccc(NC(=O)c3ccc(F)cc3)cc2)c2ccc(/C=C/C(C)(C)C)cc2n1 [Example 102, N-{4-[({2-(dimethylamino)-7-[(1E)-3,3-dimethylbut-1-en-1-yl]quinazolin-4-yl}amino)methyl]phenyl}-4-fluorobenzamide] |  | > 9360 | 825 | 1340 |  |
| CCCC/C=C/c1ccc2c(NCc3ccc(NC(=O)c4ccc(F)cc4)cc3)nc(N(C)C)nc2c1 [Example 103, N-{4-[({2-(dimethylamino)-7-[(1E)-hex-1-en-1-yl]quinazolin-4-yl}amino)methyl]phenyl}-4-fluorobenzamide] |  | > 4680 | 429 | 615 |  |
| N-(4-{[(2-azetidin-1-yl-7-methylquinazolin-4-yl)amino]methyl}phenyl)-1-benzylpiperidine-4-carboxamide [Example 137] |  |  |  |  | IC50 [1]: > 17300 nM; IC50 ([2]; Tcf 22C11 cells derived from SW480): 1260 nM; IC50 ([2]; Tcf 33.13 cells derived from SW480): 1130 nM |

Now from value to compound, other results behind:

| melting point [°C] | IC50 ([1]; Homo sapiens, SV5A8, 24 h) [nM] | IC50 [2, 3] [nM] | IC50 [2, 4] [nM] | Compound | further results |
| --- | --- | --- | --- | --- | --- |
| 325 to 329 |  |  |  | Cc1ccc2c(NCc3ccc(NC(=O)c4ccc(Cl)nc4)cc3)nc(N(C)C)nc2c1 (as salt: hydrochloride) [Example 242, 6-chloro-N-[4-({[2-(dimethylamino)-7-methylquinazolin-4-yl]amino}methyl)phenyl]nicotinamide] |  |
| 170 |  |  |  | CN(C)c1nc(NCc2ccc(NC(=O)c3ccc(Cl)nc3)cc2)c2ccc(I)cc2n1 (as salt: HCl) [Example 110, 6-chloro-N-[4-({[2-(dimethylamino)-7-iodoquinazolin-4-yl]amino}methyl)phenyl]nicotinamide] |  |
| 100 |  |  |  | Cc1ccc2c(NCc3ccc(NC(=O)C4CCN(Cc5ccccc5)CC4)cc3)nc(N(C)C)nc2c1 (as salt: HCl) [Example 129, 1-benzyl-N-[4-({[2-(dimethylamino)-7-methylquinazolin-4-yl]amino}methyl)phenyl]piperidine-4-carboxamide] |  |
| 235 |  |  |  | O=C(O)CNc1nc(NCc2ccc(NC(=O)c3ccc(F)cc3)cc2)c2ccccc2n1 (as salt: HCl) [Example 127, N-[4-({4-[(4-fluorobenzoyl)amino]benzyl}amino)quinazolin-2-yl]glycine] |  |
| 185 |  |  |  | C/C=C/c1ccc2c(NCc3ccc(NC(=O)c4ccc(Cl)nc4)cc3)nc(N(C)C)nc2c1 (as salt: HCl) [Example 112, 6-chloro-N-{4-[({2-(dimethylamino)-7-[(1E)-prop-1-en-1-yl]quinazolin-4-yl}amino)methyl]phenyl}nicotinamide] |  |
|  | > 2730 | 396 | 558 | CCN(CC)c1nc(NCc2ccc(NC(=O)c3ccc(F)cc3)cc2)c2ccc(C)cc2n1 [Example 211, N-[4-({[2-(diethylamino)-7-methylquinazolin-4-yl]amino}methyl)phenyl]-4-fluorobenzamide] |  |
|  | > 2490 | 494 | 653 | CNc1nc(N[C@H](C)c2ccc(NC(=O)c3ccc(F)cc3)cc2)c2cccc(C)c2n1 [Example 276, (R)-4-fluoro-N-(4-(1-(8-methyl-2-(methylamino)quinazolin-4-ylamino)ethyl)phenyl)benzamide] |  |
|  | > 9280 | 213 | 373 | COc1ccc(CN2CCC(C(=O)Nc3ccc(CNc4nc(N(C)C)nc5cc(C)ccc45)cc3)CC2)cc1 [Example 250, N-[4-({[2-(dimethylamino)-7-methylquinazolin-4-yl]amino}methyl)phenyl]-1-(4-methoxybenzyl)piperidine-4-carboxamide] |  |
|  | > 20100 | 1930 | 1830 | Cc1ccc2c(NCc3ccc(NC(=O)C4CCN(Cc5ccco5)CC4)cc3)nc(N(C)C)nc2c1 [Example 246, N-[4-({[2-(dimethylamino)-7-methylquinazolin-4-yl]amino}methyl)phenyl]-1-(2-furylmethyl)piperidine-4-carboxamide] |  |
|  | > 15600 | 2660 | 4460 | CC(=O)N1CCCN(c2nc(NCc3ccc(NC(=O)c4ccc(F)cc4)cc3)c3ccc(C)cc3n2)CC1 [Example 223, N-[4-({[2-(4-acetyl-1,4-diazepan-1-yl)-7-methylquinazolin-4-yl]amino}methyl)phenyl]-4-fluorobenzamide] |  |
|  | > 9600 | 782 | 805 | Cc1ccc2c(NCc3ccc(NC(=O)C4CCN(Cc5ccccc5)CC4)cc3)nc(N3CCC3)nc2c1 [Example 134, N-(4-{[(2-azetidin-1-yl-7-methylquinazolin-4-yl)amino]methyl}phenyl)-1-benzylpiperidine-4-carboxamide] |  |
|  | > 4570 | 1140 | 1830 | CNc1nc(NCc2ccc(NC(=O)c3ccc(F)c(F)c3)cc2)c2c(C)cccc2n1 [Example 189, 3,4-difluoro-N-[4-({[5-methyl-2-(methylamino)quinazolin-4-yl]amino}methyl)phenyl]benzamide] |  |
|  | > 1970 | 410 | 422 | Cc1ccc2c(NCc3ccc(NC(=O)C4CCN(Cc5ccc(Cl)c(F)c5)CC4)cc3)nc(N(C)C)nc2c1 [Example 263, 1-(4-chloro-3-fluorobenzyl)-N-[4-({[2-(dimethylamino)-7-methylquinazolin-4-yl]amino}methyl)phenyl]piperidine-4-carboxamide] |  |
|  | > 9280 | 754 | 866 | Cc1ccc2c(NCc3ccc(NC(=O)c4ccc(F)cc4)cc3)nc(N3CCC(N4CCCC4)CC3)nc2c1 [Example 226, 4-fluoro-N-[4-({[7-methyl-2-(4-pyrrolidin-1-ylpiperidin-1-yl)quinazolin-4-yl]amino}methyl)phenyl]benzamide] |  |
